Measurements taken from US6146868A, “Glucuronoxylomannan (GXM)-O-acetylhydrolase of cryptococcus neoformans and uses thereof” (Research Development Foundation, priority 1999, dated 2000).

How the values were obtained:
[1] = tested on: recombinant glucuronoxylomannan (GXM)-O-acetylhydrolase, SEQ ID No. 31 (His-tagged short clone expressed in E. coli); assay: PNP-acetate plate assay, kinetics (Km), recombinant enzyme; assay type: biochemical, mixed unknown bacterial culture from sewage; settings: pH 7.2, A405 kinetic reading, hyperbolic regression, read-out: Km for PNP-acetate (KPNPA)
Experimental: PNP-Carboxyl Ester Assay: This assay determines specificity of enzymatic activity for five different PNP-fatty acid esters: PNP-acetate (2 carbon), PNP-propionate (3 carbon), PNP-butyrate (4 carbon), PNP-laurate (12 carbon), and PNP-palmitate (16 carbon). The assay was set up in a 96-well plate and read at 405 n m on a BIO-TEK Ceres 900 plate reader. Each reaction consisted of: 200 μl PBS buffer, pH 7.2; 50 μl PNP-ester solution, 0.77 mM; and 50 μl of enzyme (containing various levels of enzyme) added just prior to reading at 405 nm. Non-enzymic hydrolysis was measured in a solution that consisted of 200 μl PBS buffer, pH 7.2; 50 μl PNP-ester solution, 0.77 mM; and 50 μl PBS, pH 7.2, the buffer replacing the enzyme. […] This assay was read within 30 seconds in a single point manner as the enzyme works rapidly on this substrate.
PNP-Acetate Assay: This assay was routinely used to determine enzymatic activity in samples of recombinant enzyme at the various steps in its expression and purification as described above, but with the PNP-acetate substrate only. This reaction was measured at pH=6.2 to 8.2. […]
Kinetics: Kinetics of the enzyme were investigated through use of the PNP-acetate plate assay and the competition assay described above. The plates were read on the BIO-TEK Ceres 900 plate reader at 405 nm with a kinetic protocol that took readings every 20 seconds for 3 minutes. […]

[2] = tested on: native (wild-type) glucuronoxylomannan (GXM)-O-acetylhydrolase purified from mixed unknown bacterial culture; assay: PNP-acetate plate assay, kinetics (Km), native enzyme; assay type: biochemical, mixed unknown bacterial culture from sewage; settings: pH 7.2, A405 kinetic reading, hyperbolic regression, read-out: Km for PNP-acetate (KPNPA)
Description: Purification, LysC Degradation and Amino Acid Sequencing of Wild-Type Enzyme: The native GXM O-acetylhydrolase was purified from a mixed unknown bacterial culture that was collected from sewage. The purification was achieved by the following steps: cholate extraction, ammonium sulfate precipitation, molecular sieve chromatography, and ion exchange on a mono Q column followed by a mono S column.
PNP-Carboxyl Ester Assay: This assay determines specificity of enzymatic activity for five different PNP-fatty acid esters: PNP-acetate (2 carbon), PNP-propionate (3 carbon), PNP-butyrate (4 carbon), PNP-laurate (12 carbon), and PNP-palmitate (16 carbon). The assay was set up in a 96-well plate and read at 405 n m on a BIO-TEK Ceres 900 plate reader. Each reaction consisted of: 200 μl PBS buffer, pH 7.2; 50 μl PNP-ester solution, 0.77 mM; and 50 μl of enzyme (containing various levels of enzyme) added just prior to reading at 405 nm. Non-enzymic hydrolysis was measured in a solution that consisted of 200 μl PBS buffer, pH 7.2; 50 μl PNP-ester solution, 0.77 mM; and 50 μl PBS, pH 7.2, the buffer replacing the enzyme. Standard curves were obtained by measurement of the A405 of solutions of known amounts of para-nitrophenol. This assay was read within 30 seconds in a single point manner as the enzyme works rapidly on this substrate. […]

`CC(=O)Oc1ccc([N+](=O)[O-])cc1` [PNP-acetate] was tested, and the Km [1] was 1340 µM and the Km [2] was 1260 µM.
